From BindingDB's records for doi:10.1021/jm0205696 (Abbott Laboratories, 2003)

Target: T1, Tyrosine-protein phosphatase non-receptor type 2 (Homo sapiens, UniProt P17706)
T1 sequence (P17706 whole entry): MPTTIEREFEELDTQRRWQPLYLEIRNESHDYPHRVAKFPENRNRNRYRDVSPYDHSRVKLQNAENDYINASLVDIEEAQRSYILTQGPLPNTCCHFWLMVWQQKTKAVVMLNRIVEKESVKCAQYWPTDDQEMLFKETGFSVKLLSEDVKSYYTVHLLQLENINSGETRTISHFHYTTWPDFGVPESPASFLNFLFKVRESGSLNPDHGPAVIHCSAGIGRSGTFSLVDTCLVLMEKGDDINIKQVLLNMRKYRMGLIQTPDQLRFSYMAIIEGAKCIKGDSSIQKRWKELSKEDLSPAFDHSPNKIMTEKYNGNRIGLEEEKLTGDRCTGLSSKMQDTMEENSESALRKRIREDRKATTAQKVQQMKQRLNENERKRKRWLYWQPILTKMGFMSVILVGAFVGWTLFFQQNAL
Experiment: PTP1B and TCPTP Inhibition Assay
Method: For each concentration of test compound or DMSO control, the initial rates were used to fit the rectangular hyperbola of Michaelis-Menten by nonlinear regression analysis. The ratio of the apparent Km/Vmax vs inhibitor concentration was plotted, and the Ki was calculated by linear regression to be the negative X-intercept.

Ki: 0.16 µM
SMILES: CCCCCNC(=O)[C@H](Cc1ccc(N(C(=O)C(=O)O)c2ccccc2C(=O)O)c(/C=C/C(N)=O)c1)NS(C)(=O)=O [2-{[2-(2-Carbamoylvinyl)-4-(2-(S)-methanesulfonylamino 2-pentylcarbamoylethyl)phenyl]oxalylamino}-benzoic Acid]
